Experimental data: patent publication EP4324928A1, “SYNTHETIC REAGENTS FOR ENZYME-CATALYSED ALKYLATION” (priority 2022, dated 2024)
Residue numbers refer to the chain shown, from its start. Structures can show the parent of a compound that is named as a salt.

What was measured:
[1] = Stability test of methyl donors in phosphate buffer (1H NMR, hydrolysis and phosphorolysis); conditions: pH 8.4
Experimental: These solutions were monitored by ^1H NMR at time points between 0.5 to 24 hours to quantify the products of hydrolysis and phosphorolysis. The ^1H NMR signal peaks of all methyl species were integrated and the ratio of them was calculated. The percentage of methyl donor was plotted against time and the graph was fitted with exponential decay model to calculate the half-life of the methyl donor.

[2] = tested on: BxHMT; assay: Time-dependent methylation of SAH by HMT using dimethyl sulfate with or without sodium iodide (HPLC); assay type: biochemical, Paraburkholderia xenovorans; conditions: 1 mM SAH, 2 mM DMSa, 0.1, 1.0 or 10 mM Nal (same efficiency without Nal), 50 mM phosphate buffer pH 8, within two hours
Experimental: (§4) The given values are averages of three independent measurements. The associated error is less than 30 % of the average value. […] In addition, the reactions contained 50 mM sodium phosphate buffer (pH 8.0) and were incubated at 25 °C. The concentration of SAM was determined by HPLC. A) with 10 µM BxHMT; B) with 10 µM AtHMT. […] The concentration of SAM was determined by HPLC; B) Initial rates of these reactions were estimated from the slopes of linear-fit curves of the points at 1, 2 and 4 minutes.

[3] = target: T1, AtHMT (Arabidopsis thaliana, UniProt Q0WP12); assay: as above; assay type: biochemical; conditions: 1 mM SAH, 2 mM DMSa; efficient SAM production required 10 mM Nal
T1 construct: made in house; host or cells: E. coli Δmtn (DE3)
T1 sequence (Q0WP12 1-227): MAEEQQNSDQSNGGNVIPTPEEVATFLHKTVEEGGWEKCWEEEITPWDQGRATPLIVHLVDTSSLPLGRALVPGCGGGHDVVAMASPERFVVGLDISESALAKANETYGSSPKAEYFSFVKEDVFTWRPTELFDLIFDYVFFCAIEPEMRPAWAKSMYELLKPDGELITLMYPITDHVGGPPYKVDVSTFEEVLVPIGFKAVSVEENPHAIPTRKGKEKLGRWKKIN
Experimental: as §4

[4] = tested on: bra; assay: TPMT panel screen: SAM production from SAH with methyl donor (HPLC); assay type: biochemical, Brassica rapa chinensis; conditions: 2 mM DMSa, 1 mM SAH, 10 µM TPMT, 50 mM phosphate buffer pH 8.0, 25°C; barely exceeds uncatalyzed background
Description: (§1) The inventors are not aware of any reports on SAM-dependent methyltransferases that transfer methyl groups from or to sulfates or sulfonates.^[18] […] To test this idea, the inventors assayed a panel of 13 distantly related TPMT homologs for the ability to produce SAM from SAH using DMSa, methyl methanesulfonate (MMSa), methyl toluenesulfonate (MeOTs) or methyl 4-nitrobenzenesulfonate (MeONs) as methyl donor. The proteins were produced in E. coli and purified following standard procedures . The activity of the enzymes was assayed in reactions containing 1 mM SAH, 50 mM phosphate buffer pH 8.0 and 2 mM of either methyl donor. The concentration of SAM after different incubation times (0.5- 24 h) was quantified by HPLC. […] In a nutshell, enzymes that have evolved to catalyze specific physiological reactions may have acquired - by chance - considerable activities for reactions they were never optimized for, while others - from the same enzyme family and with the same physiological function - may have not.

[5] = tested on: msm; assay: as above; assay type: biochemical, Mycolicibacterium smegmatis; conditions: 2 mM DMSa, 1 mM SAH, 10 µM TPMT, 50 mM phosphate buffer pH 8.0, 25°C; barely exceeds uncatalyzed background
Description: as §1

[6] = target: T2, bma (Batis maritima, UniProt Q9ZSZ7); assay: as above; assay type: biochemical; conditions: 2 mM DMSa, 1 mM SAH, 10 µM TPMT, 50 mM phosphate buffer pH 8.0, 25°C; barely exceeds uncatalyzed background
T2 construct: Leu-Glu-His6 (C); made in house; host or cells: E. coli Δmtn (DE3)
T2 sequence (Q9ZSZ7 1-230): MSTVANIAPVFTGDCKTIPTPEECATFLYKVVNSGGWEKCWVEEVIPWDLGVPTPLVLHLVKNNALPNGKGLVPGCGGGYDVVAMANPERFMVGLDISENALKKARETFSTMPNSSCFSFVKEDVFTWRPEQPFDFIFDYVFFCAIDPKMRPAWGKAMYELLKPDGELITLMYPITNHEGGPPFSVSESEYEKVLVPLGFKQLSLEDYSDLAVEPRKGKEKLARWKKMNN
Description: as §1

[7] = tested on: mac; assay: as above; assay type: biochemical, Methanosarcina Acetivorans; conditions: 2 mM DMSa, 1 mM SAH, 10 µM TPMT, 50 mM phosphate buffer pH 8.0, 25°C; barely exceeds uncatalyzed background
Description: as §1

[8] = tested on: dba; assay: as above; assay type: biochemical, Dehalococcoidia bacterium; conditions: 2 mM DMSa, 1 mM SAH, 10 µM TPMT, 50 mM phosphate buffer pH 8.0, 25°C; barely exceeds uncatalyzed background
Description: as §1

[9] = tested on: nba; assay: as above; assay type: biochemical, Nitrospinae bacterium; conditions: 2 mM DMSa, 1 mM SAH, 10 µM TPMT, 50 mM phosphate buffer pH 8.0, 25°C; barely exceeds uncatalyzed background
Description: as §1

[10] = tested on: acl; assay: as above; assay type: biochemical, Aspergillus clavatus; conditions: 2 mM DMSa, 1 mM SAH, 10 µM TPMT, 50 mM phosphate buffer pH 8.0, 25°C; complete conversion within 0.5 h
Description: as §1

[11] = tested on: dsq; assay: as above; assay type: biochemical, Dichomitus squalens; conditions: 2 mM DMSa, 1 mM SAH, 10 µM TPMT, 50 mM phosphate buffer pH 8.0, 25°C; complete conversion within 0.5 h
Description: as §1

[12] = target: T3, AtHMTV140A (Arabidopsis thaliana, UniProt Q0WP12, V140A); assay: Time-dependent methylation of SAH with methyl iodide, initial rates, mutant versus AtHMT (HPLC); assay type: biochemical; conditions: 1 µM enzyme, 1 mM SAH, 2 mM Mel, 50 mM sodium phosphate buffer pH 8.0, 25 °C
T3 construct: made in house; host or cells: E. coli Δmtn (DE3)
T3 sequence (Q0WP12 1-227 V140A): T1 sequence (Q0WP12 1-227) with V140A

[13] = rats; cited from earlier work
[14] = target: T4, AtHMT Val140 to Thr (Arabidopsis thaliana, UniProt Q0WP12, V140T); conditions: previous study; cited from earlier work
T4 sequence (Q0WP12 1-227 V140T): T1 sequence (Q0WP12 1-227) with V140T

[15] = tested on: TBU; assay: TPMT-catalyzed SAH methylation using dimethyl sulfite as methyl group donor (HPLC); assay type: biochemical; conditions: after 20-hour incubation
Description: (§2) Dimethyl sulfite (Me2SO3) is used as an additive in some polymers to prevent oxidation. It is much less toxic than dimethyl sulfate and can be considered as a potential methyl group donor. Herein, the inventors performed SAH methylation with dimethyl sulfite (Figure 9).

[16] = tested on: TPMT uma; assay: as above; assay type: biochemical, Ustilago maydis; conditions: after 20-hour incubation
Description: as §2

[17] = tested on: TPMT acl; assay: as above; assay type: biochemical, Aspergillus clavatus; conditions: after 20-hour incubation
Description: as §2

[18] = physchem; assay type: physicochemical; conditions: buffer, pH 8
Experimental: Ethylene sulfate (C2H4SO4) is a two carbon-unit cyclic sulfate. The inventors also used ethylene sulfate to perform SAH alkylation (Figure 7). A new peak with retention time at 15.7 minutes could be detected by HPLC in the reactions with about half number of TPMTs, although the new peak has not been identified as the desired product. If the new peak is the target product, especially for TPMT kal, 37% of SAH was converted to SAM analog after 4-hour incubation. For TPMT CAK and ath_V140A, they also got over 20% yield of SAM analog. In my opinion, the inactivation of TPMT during the reaction was not the reason of relatively low yield of SAM analog. […] During the reaction, most of ethylene sulfate hydrolyzed so that there was not enough ethylene sulfate to alkylate SAH.

[19] = tested on: TPMT kal; assay: TPMT-catalyzed SAH alkylation using ethylene sulfate as alkyl group donor (HPLC); assay type: biochemical, Kordia algicida
Description: (§3) Ethylene sulfate (C2H4SO4) is a two carbon-unit cyclic sulfate. The inventors also used ethylene sulfate to perform SAH alkylation (Figure 7).

[20] = tested on: TPMT CAK; assay: as above; assay type: biochemical; conditions: new HPLC peak not identified as the desired product
Description: as §3

[21] = target: T5, ath_V140A (Arabidopsis thaliana, UniProt Q0WP12, V140A); assay: as above; assay type: biochemical; conditions: new HPLC peak not identified as the desired product
T5 construct: made in house; host or cells: E. coli Δmtn (DE3)
T5 sequence (Q0WP12 1-227 V140A): T1 sequence (Q0WP12 1-227) with V140A
Description: as §3

[22] = tested on: monoamine oxidase; conditions: background statement; cited from earlier work

COS(=O)(=O)OC [DMSa, dimethyl sulfate]
half-life ([1]; buffer): 0.97 ± 0.05 h | half-life [1]: 0.95 ± 0.07 h | SAH converted to SAM [2]: 60 - 70% | acceptance of DMSa as substrate [3]: not a direct substrate | rate [4]: < 0.01 min⁻¹ | rate [5]: < 0.01 min⁻¹ | rate [6]: < 0.01 min⁻¹ | rate [7]: < 0.01 min⁻¹ | rate [8]: < 0.01 min⁻¹ | rate [9]: < 0.01 min⁻¹ | rate [10]: > 3 turnover min^-1 | rate [11]: > 3 turnover min^-1

COS(C)(=O)=O [MMSa, methyl methanesulfonate]
half-life ([1]; buffer): 34 ± 1 h | half-life [1]: 28 ± 4 h

COS(=O)(=O)c1ccc([N+](=O)[O-])cc1 [MeONs, methyl 4-nitrobenzenesulfonate]
half-life ([1]; buffer): 3 ± 0.1 h

COS(=O)(=O)c1ccc(C)cc1 [MeOTs, methyl 4-toluenesulfonate]
half-life ([1]; buffer): 26 ± 1 h | half-life [1]: 21 ± 3 h

CI [Mel, methyl iodide]
activity for Mel diminished (Val140 to Ala versus AtHMT) [12]: 7 fold | LD50 [13]: 76 mg/kg | catalytic efficiency for Mel reduced (Val140 to Thr) [14]: 6 fold

COS(=O)OC [dimethyl sulfite, Dimethyl sulfite]
yield of SAM [15]: 7% | yield of SAM [16]: 8% | yield of SAM [17]: 14%

O=S1(=O)OCCO1 [ethylene sulfate, Ethylene sulfate]
half-life [18]: 0.183 h | yield of SAM analog ([19]; 1 mM SAH, 1 mM ethylene sulfate added every half an hour, after 3-hour incubation): 60% | SAH converted to SAM analog ([19]; ethylene sulfate as donor, after 4-hour incubation, new HPLC peak not identified as the desired product): 37% | yield of SAM analog [20]: over 20% | yield of SAM analog [21]: over 20%

C[C@H](NCc1ccc(OCc2cccc(F)c2)cc1)C(N)=O [safinamide]
increased potency by addition of a single methyl group [22]: 20 fold | increased selectivity by addition of a single methyl group [22]: ~1000 fold
